# Measured values: PubChem BioAssay AID1996
# Details: buffer; pH 7.4; 200.0 µM
row,SMILES,solubility kinetic [mg/mL]
1,O=C(COC(=O)c1ccccc1)Nc1ccc2[nH]c(=O)[nH]c2c1,0.0072
2,Cc1nn(C)c(C)c1NS(=O)(=O)c1c(C)n[nH]c1C,> 0.0425
3,O=C(Cc1c[nH]c2ccccc12)NCc1ccncc1,> 0.0398
4,CCOC(=O)c1ccc(Nc2nc(C)cc(C)n2)cc1,0.0002
5,CN(C(=O)CO/N=C/c1ccc(Cl)cc1)c1ccccc1,0.0446
6,COc1ccc(NC(=O)CNC(=O)c2cccs2)cc1Cl,0.0027
7,Cc1cc(=O)oc2cc(OCC(O)Cn3ccnc3)ccc12 (stereo unspecified),> 0.045
8,O=C(/C=C/c1cccnc1)c1ccc(F)c(F)c1,0.0278
9,COc1ccc(NC2c3ccccc3C(=O)N2c2cccnc2)cc1 (stereo unspecified),> 0.0497
10,O=C1NC(=Nc2ccccc2Cl)SC1(CO)CO,0.0423
11,O=S1(=O)CCC(NC(=S)Nc2ccccc2)C1 (stereo unspecified),> 0.0406
12,O=C(CCl)Nc1c2c(nn1-c1ccccc1)CSC2,> 0.0441
13,Cc1cc(C)cc(C(=O)OCC(=O)NCc2ccco2)c1,> 0.0431
14,CCc1cc(N2CCOCC2)cc2c1[nH]c1ccccc12,> 0.0421
15,Cc1ccsc1C(=O)Nc1nc2ccccc2[nH]1,0.002
16,COc1cccc(C(=O)NC2CCCc3ccccc32)c1OC (stereo unspecified),0.0316
17,O=C(Nc1ccc(Cl)cc1)c1ccc(-c2ccccn2)s1,< 0.0003
18,COc1ccc(N=C(C)c2c(O)[nH]c(=O)[nH]c2=O)cc1,0.005
19,CSCC[C@H](NC(=O)Nc1ccccc1C)C(=O)O,> 0.0424
20,COc1ccc(NC(=O)CC(C)n2ccnc2)cc1 (stereo unspecified),> 0.0389
21,CC(=O)NS(=O)(=O)c1ccc(NC(=S)NC(=O)C2CCC2)cc1,> 0.0533
22,CC1SC(=S)N(c2ccc(N(C)C)cc2)C1=O (stereo unspecified),0.0057
23,Cc1ccc(C(=O)Nc2nccs2)cc1,0.0165
24,COc1ccccc1C(=O)NCCC(=O)Nc1cccc(C)n1,> 0.047
25,Cc1ccc(S(=O)(=O)N2CCC(C(N)=O)CC2)cc1[N+](=O)[O-],> 0.0491

row,SMILES,solubility kinetic [mg/mL]
1,c1ccc(CSc2nc3ncccn3n2)cc1,> 0.0363
2,CN1CCCN(S(=O)(=O)c2ccc3ccccc3c2)CC1,> 0.0457
3,CCc1cc(C(=O)Nc2ncccc2O)sc1C,> 0.0393
4,Clc1ccc2c(NCc3ccccc3)ccnc2c1,0.019
5,Cc1ccc(C)c(NC(=O)CCN2CCC(C)CC2)c1,> 0.0412
6,COC(=O)CSc1nc(N)c(C#N)c(-c2ccc(O)cc2)c1C#N,0.0006
7,N#CC(c1nc2ccccc2nc1N1CCOCC1)S(=O)(=O)c1ccccc1 (stereo unspecified),> 0.0592
8,CCn1c(C)nnc1SCC(=O)Nc1ccccc1Cl,> 0.0466
9,COc1ccc(OC)c(NC2=NCCS2)c1,> 0.0357
10,CN(C)c1ccc(NC(=O)CN2CCN(c3ccc(F)cc3)CC2)cc1,0.0025
11,CC(C)(C)C(=O)N1CCn2c1nc1ccccc12,0.0319
12,COc1ccc(C2NC(=O)NC3=C2CCc2ccccc23)cc1 (stereo unspecified),0.0181
13,c1ccc(CNCCc2c[nH]c3ccccc23)cc1,0.0372
14,CCOc1ccccc1NC(=O)C1CCCN(S(C)(=O)=O)C1 (stereo unspecified),> 0.049
15,O=C(CCCO)NNc1c2ccccc2nc2ccccc12,> 0.0443
16,CCN1CC2([N+](=O)[O-])CC=C(Cl)C([N+](=O)[O-])(C1)C2 (stereo unspecified),0.0284
17,CC(C)(C)C(=O)N1CCN(C(=O)c2ccco2)CC1,> 0.0396
18,NC(=O)CSc1nnc(NC(=O)c2ccc(Br)o2)s1,> 0.0545
19,COC(=O)c1scc(C)c1NC(=O)c1ccc(Cl)cc1,0.0213
20,Cc1ccc(N2C(=O)N(c3ccc(C)cc3)C3CS(=O)(=O)CC32)cc1 (stereo unspecified),0.0129
21,Nc1nc2ccc(Cc3ccncc3)cc2s1,> 0.0362
22,CC(C)(C)c1nc2cc(Cl)c([N+](=O)[O-])cc2o1,0.0065
23,COc1ccc([N+](=O)[O-])cc1NC(=O)CCN1CCOCC1,> 0.0464
24,Cc1cc(C)nc(SCC(=O)NC2CCCC2)n1,> 0.0398
25,O=C(Nc1nnc2n1CCS2)c1ccco1,> 0.0354

row,SMILES,solubility kinetic [mg/mL]
1,CC1CCCCN1C(=O)CCS(=O)(=O)c1cccc2nonc12 (stereo unspecified),0.0418
2,O=C(NCCCc1nc2ccccc2[nH]1)c1cccs1,0.0374
3,CCc1cnccc1CCC(=O)Nc1ccccc1C,0.0354
4,C/C=C(\C)C(=O)N1CCC(C(=O)c2ccccc2)CC1,> 0.0407
5,Cc1ccc2nc(Cl)c(C#N)cc2c1,0.0022
6,O=C(Nc1ccc(CN2CCS(=O)(=O)CC2)cc1)c1ccc(Cl)cc1,0.0046
7,O=C(NC(=S)NC1CCS(=O)(=O)C1)c1ccccc1 (stereo unspecified),> 0.0448
8,Cc1ccc(S(=O)(=O)NC2CC(C)(C)NC(C)(C)C2)cc1,0.0405
9,Cc1ccc(S(=O)(=O)CCN2CCN(c3ccccn3)CC2)cc1,> 0.0518
10,COc1cccc(NC(=O)CN(C)C(=O)C2=COCCO2)c1,0.0431
11,O=C(O)c1cc2cc(Oc3ccccc3)ccc2[nH]1,> 0.038
12,O=C(CN1C(=O)NC2(CCCCC2)C1=O)NCCc1ccc(Cl)cc1Cl,> 0.0597
13,O=C(Nc1ccc(Br)cc1)C1CCCC1,0.007
14,O=C(c1ccccc1)n1c(=O)c(F)cn(COCCBr)c1=O,> 0.0557
15,CCOc1ccc2nc(N(CCN(C)C)C(=O)/C=C/c3cccs3)sc2c1.Cl,< 0.0003
16,COc1ccc(N(C)S(=O)(=O)c2cccc(C(=O)OCC(=O)c3c(N)n(C)c(=O)n(C)c3=O)c2)cc1,0.0032
17,CC(C)c1ccc(OCC(=O)NCc2ccccc2)cc1,0.0032
18,O=C(O)Cc1ccc(NS(=O)(=O)c2ccc3ccccc3c2)cc1,> 0.0512
19,CC(CN1CCCC1)OC(=O)c1ccc(F)cc1.Cl (stereo unspecified),> 0.0432
20,S=C(CN1CCCC1=S)N1CCOCC1,> 0.0367
21,Nc1ccccc1Nc1c(F)c(F)nc(F)c1Cl,0.0376
22,CCC(Oc1ccccc1F)C(=O)NCCCn1ccnc1 (stereo unspecified),> 0.0458
23,Cn1c(N)c(C(=O)Nc2c(Cl)cccc2Cl)sc1=S,0.0024
24,O=C(Nc1ccccc1)OCc1cnc(Cl)s1,0.0367
25,Cc1cc(C(=O)OCC(=O)NCc2ccco2)c(C)o1,> 0.0416

row,SMILES,solubility kinetic [mg/mL]
1,COC(=O)c1c(C)oc(C)c1S(=O)(=O)NCc1ccc(OC)cc1,> 0.053
2,CCOc1ccc(OCCn2c(=S)[nH]c3ccccc32)cc1,0.0009
3,CCC(CC)NC(=O)Cc1ccc(F)cc1,> 0.0335
4,COc1ccc(NC(=S)N2CCc3ccccc32)cc1OC,> 0.0472
5,S=C(NCc1ccccc1)N1CCn2cccc2C1c1ccncc1 (stereo unspecified),0.0452
6,CSc1nc(N(C)C)nc(N(C)C#N)n1,> 0.0336
7,Cc1ccc(C2CCN(C(=S)NC3CCCCC3)C2)cc1 (stereo unspecified),0.0013
8,Cc1ccc(C)c(NC(=O)Cn2cc(C(=O)C3CC3)c3ccccc32)c1,< 0.0004
9,COc1ccc(N2CCCC2)c(NC(=O)COc2ccccc2)c1,0.0038
10,O=S(=O)(Nc1ccc(-c2cn3ccccc3n2)cc1)c1ccccc1,0.0015
11,COc1ccc(C2=NC(C)(C)Cc3cc(OC)c(OC)cc32)cc1,> 0.0488
12,NC(=O)c1cc(S(=O)(=O)N2CCOCC2)cs1,> 0.0414
13,N#C/C(=C\c1ccncc1)c1ccccn1,> 0.0311
14,COP(=O)(OC)C(Nc1ccc([N+](=O)[O-])cc1)c1ccccc1 (stereo unspecified),> 0.0504
15,Cc1ccc(NC(=S)Nc2ccc3[nH]c(=O)[nH]c3c2)cc1,0.044
16,CC1CCCC(NC(=O)COC(=O)c2ccc([N+](=O)[O-])o2)C1C (stereo unspecified),0.0184
17,COc1cc(NC(=O)Nc2cccc3cccnc23)cc(OC)c1OC,0.0004
18,O=C(COC(=O)C1CC2C=CC1C2)Nc1ccccc1[N+](=O)[O-] (stereo unspecified),0.0294
19,COc1cccc(CNC(=O)Cc2ccc(-c3ccccc3)cc2)c1,0.0051
20,O=C(Nc1ccccc1C(=O)Nc1ccncc1)c1ccc([N+](=O)[O-])cc1,0.0112
21,O=C(O)/C=C/C(=O)Nc1ccc(S(=O)(=O)N2CCCC2)cc1,> 0.0487
22,Cc1onc(C(=O)NC2CCCCC2)c1[N+](=O)[O-],> 0.038
23,Cc1ccc(-n2c(C)c([N+](=O)[O-])c3ccc(O)cc32)cc1,0.0004
24,COc1cc(N)ccc1-c1cc2ccccc2oc1=O,> 0.0401
25,COC(=O)c1cc(CSC(=N)N)ccc1OCCC(C)C.Cl,> 0.052

row,SMILES,solubility kinetic [mg/mL]
1,CSCC[C@H](NC(=O)c1ccc(OCC2CCCO2)cc1)c1nc2ccccc2[nH]1 (stereo partly specified),0.0569
2,COc1cccc(-n2c(O)c(C=NCCN3CCNCC3)c(=O)[nH]c2=S)c1,> 0.0584
3,CSc1nc2c(c(=O)[nH]c(=O)n2C)n1Cc1ccccc1,> 0.0454
4,O=C(O)C1C2CCC(C2)C1C(=O)NCCc1cccc(Cl)c1 (stereo unspecified),> 0.0483
5,CC(=O)Nc1ncc(Cc2ccc(Cl)cc2Cl)s1,0.001
6,Cc1cc(=O)oc2cc(OCC(=O)Nc3nccs3)ccc12,0.0041
7,O=C(Nc1cc(Cl)c(Cl)cc1Cl)c1cccnc1,0.0061
8,CC(=O)c1cccc(NC(=O)N2CC(C)OC(C)C2)c1 (stereo unspecified),> 0.0415
9,O=S(=O)(Nc1nccs1)c1ccc(NS(=O)(=O)c2c(F)cc(F)c(Cl)c2F)cc1,> 0.0726
10,COc1ccccc1NCC(=O)c1ccc(Cl)cc1,0.0047
11,CC(=O)N[C@H](Cc1c[nH]c2ccccc12)C(=O)O,> 0.0369
12,Cc1cc2cc(CNC(=S)NC3CCCCC3)ccc2[nH]1,0.0125
13,Cc1cc(-c2cccs2)c(C#N)c(=S)[nH]1,0.0283
14,O=c1[nH]c2ccc(NS(=O)(=O)c3ccc(F)c(Cl)c3)cc2[nH]1,0.0075
15,Cc1ccc(NC(=O)CSc2nc(C)c(C)c(C)n2)cc1S(=O)(=O)N1CCOCC1,0.0042
16,COc1ccc(Br)cc1CNCCc1ccc2c(c1)OCO2,0.0523
17,CCN1CCc2c(OCC(=O)N3CCC(C)CC3)cccc2C1=O,0.0462
18,CCC1(C)SC(N)=NN1C(C)=O (stereo unspecified),> 0.0281
19,CCN(CC(=O)Nc1ccc2c(c1)OCCO2)C(=O)/C=C/c1cccc(C(F)(F)F)c1,0.0036
20,Cc1ccccc1OCC(=O)NCC(c1ccco1)N1CCCCC1 (stereo unspecified),0.0401
21,C/C(N)=C(/C#N)C(=O)COC(=O)c1ccc(OCC2CCCO2)cc1 (stereo unspecified),0.0515
